# Experiments:
# Test in all cases: Test B pre-/postemergence plant response
# Format in all cases: in vivo
# corn (Zea mays) = conditions: for Corn plant response rating: 8 g ai/ha
# In short: (§1)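 Visual scoring from 0 (no effect) to 100 (complete control) against untreated controls was done 13 to 15 days after greenhouse treatment. Chemicals were formulated in a surfactant-containing non-phytotoxic solvent and applied to soil preemergence or to 1- to 4-leaf (2-18 cm) plants postemergence.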
# [1] = test system: Russian thistle (Salsola iberica); conditions: Preemergence
# In short: as §1
# [2] = test system: cocklebur (Xanthium strumarium); conditions: for Cocklebur plant response rating: 8 g ai/ha
# In short: as §1
# [3] = test system: blackgrass (Alopecurus myosuroides); conditions: for Blackgrass plant response rating: 8 g ai/ha
# In short: as §1
# [4] = test system: woolly cupgrass (Eriochloa villosa); conditions: for Cupgrass, Woolly plant response rating: 8 g ai/ha
# In short: as §1
# [5] = test system: downy bromegrass (Bromus tectorum); conditions: for Bromegrass, Downy plant response rating: 8 g ai/ha
# In short: as §1
# [6] = test system: common (oilseed) sunflower (Helianthus annuus); conditions: Preemergence
# In short: as §1
# [7] = test system: wheat (Triticum aestivum); conditions: for Wheat plant response rating: 8 g ai/ha
# In short: as §1
# [8] = test system: green foxtail (Setaria viridis); conditions: for Foxtail, Green plant response rating: 8 g ai/ha
# In short: as §1
# [9] = test system: common ragweed (Ambrosia elation); conditions: for Ragweed plant response rating: 8 g ai/ha
# In short: as §1
# [10] = test system: eastern black (E.B.) nightshade (Solanum ptycanthum); conditions: Preemergence
# In short: as §1
# [11] = test system: yellow nutsedge (Cyperus esculentus); conditions: for Nutsedge, Yellow plant response rating: 8 g ai/ha
# In short: as §1
# wild oat (Avena fatua) = conditions: for Oat, Wild plant response rating: 8 g ai/ha
# In short: as §1
# [12] = test system: surinam grass (Brachiaria decumbens); conditions: for Surinam Grass plant response rating: 8 g ai/ha
# In short: as §1
# [13] = Postemergence, 16 g ai/ha, scale 0 to 100
# [14] = Postemergence, 31 g ai/ha, scale 0 to 100, 0 no effect, 100 complete control
# [15] = Postemergence, 62 g ai/ha, scale 0 to 100, 0 no effect, 100 complete control
# [16] = Preemergence, 16 g ai/ha, scale 0 to 100 (0 no effect, 100 complete control)
# [17] = Preemergence, 31 g ai/ha, 0 to 100 scale, 0 no effect, 100 complete control
# [18] = Preemergence, 62 g ai/ha, scale 0 to 100
# [19] = 16 g ai/ha, scale 0 to 100 (0 no effect, 100 complete control)
# [20] = 31 g ai/ha, 0 to 100 scale, 0 no effect, 100 complete control
smiles,measurement,setting,value
Cc1cc(-c2ccc(Cl)cc2)nn1-c1c(OC(=O)c2ccccc2Cl)cnn(C)c1=O [Compound 38],Corn plant response rating,"corn (Zea mays); postemergence, 0-100 scale",90
same,"Plant response rating, Corn",corn (Zea mays); [13],95
same,"Plant response rating, Corn",corn (Zea mays); [14],100
same,"Plant response rating, Corn",corn (Zea mays); [15],100
same,"Plant response rating, Corn",corn (Zea mays); [16],50
same,"Plant response rating, Corn",corn (Zea mays); [17],75
same,"Plant response rating, Corn",corn (Zea mays); [18],95
same,Corn plant response rating,"corn (Zea mays); Preemergence, scale 0 to 100",45
same,"Plant response rating, Russian Thistle",[1]; [19],0
same,"Plant response rating, Russian Thistle",[1]; [20],0
same,"Plant response rating, Russian Thistle","[1]; 62 g ai/ha, scale 0 to 100",0
same,Russian Thistle plant response rating,"[1]; 8 g ai/ha, scale 0 to 100",0
same,Cocklebur plant response rating,"[2]; postemergence, 0-100 scale",0
same,"Plant response rating, Cocklebur",[2]; [13],0
same,"Plant response rating, Cocklebur",[2]; [14],0
same,"Plant response rating, Cocklebur",[2]; [15],0
same,"Plant response rating, Cocklebur",[2]; [16],0
same,"Plant response rating, Cocklebur",[2]; [17],0
same,"Plant response rating, Cocklebur",[2]; [18],0
same,Cocklebur plant response rating,"[2]; Preemergence, scale 0 to 100",0
same,Blackgrass plant response rating,"[3]; postemergence, 0-100 scale",0
same,"Plant response rating, Blackgrass",[3]; [13],40
same,"Plant response rating, Blackgrass",[3]; [14],80
same,"Plant response rating, Blackgrass",[3]; [15],98
same,"Plant response rating, Blackgrass",[3]; [17],90
same,"Plant response rating, Blackgrass",[3]; [18],100
same,Blackgrass plant response rating,"[3]; Preemergence, scale 0 to 100",90
same,"Cupgrass, Woolly plant response rating","[4]; postemergence, 0-100 scale",70
same,"Plant response rating, Cupgrass, Woolly",[4]; [13],98
same,"Plant response rating, Cupgrass, Woolly",[4]; [14],100
same,"Plant response rating, Cupgrass, Woolly",[4]; [15],100
same,"Plant response rating, Cupgrass, Woolly",[4]; [16],50
same,"Plant response rating, Cupgrass, Woolly",[4]; [17],90
same,"Plant response rating, Cupgrass, Woolly",[4]; [18],100
same,"Cupgrass, Woolly plant response rating","[4]; Preemergence, scale 0 to 100",0
same,"Bromegrass, Downy plant response rating","[5]; postemergence, 0-100 scale",30
same,"Plant response rating, Bromegrass, Downy",[5]; [13],45
same,"Plant response rating, Bromegrass, Downy",[5]; [14],50
same,"Plant response rating, Bromegrass, Downy",[5]; [15],60
same,"Plant response rating, Bromegrass, Downy",[5]; [16],55
same,"Plant response rating, Bromegrass, Downy",[5]; [17],60
same,"Plant response rating, Bromegrass, Downy",[5]; [18],90
same,"Bromegrass, Downy plant response rating","[5]; Preemergence, scale 0 to 100",55
same,"Plant response rating, Sunflower",[6]; [19],0
same,"Plant response rating, Sunflower",[6]; [20],0
same,"Plant response rating, Sunflower","[6]; 62 g ai/ha, scale 0 to 100",0
same,Sunflower plant response rating,"[6]; 8 g ai/ha, scale 0 to 100",0
same,Wheat plant response rating,"[7]; postemergence, 0-100 scale",10
same,"Plant response rating, Wheat",[7]; [13],45
same,"Plant response rating, Wheat",[7]; [15],95
same,"Plant response rating, Wheat",[7]; [16],0
same,"Plant response rating, Wheat",[7]; [17],0
same,"Plant response rating, Wheat",[7]; [18],90
same,Wheat plant response rating,"[7]; Preemergence, scale 0 to 100",0
same,"Foxtail, Green plant response rating","[8]; postemergence, 0-100 scale",30
same,"Plant response rating, Foxtail, Green",[8]; [13],75
same,"Plant response rating, Foxtail, Green",[8]; [14],80
same,"Plant response rating, Foxtail, Green",[8]; [15],98
same,"Plant response rating, Foxtail, Green",[8]; [16],100
same,"Plant response rating, Foxtail, Green",[8]; [17],100
same,"Plant response rating, Foxtail, Green",[8]; [18],100
same,"Foxtail, Green plant response rating","[8]; Preemergence, scale 0 to 100",30
same,Ragweed plant response rating,"[9]; postemergence, 0-100 scale",0
same,"Plant response rating, Ragweed",[9]; [13],0
same,"Plant response rating, Ragweed",[9]; [14],0
same,"Plant response rating, Ragweed",[9]; [15],0
same,"Plant response rating, Ragweed",[9]; [16],0
same,"Plant response rating, Ragweed",[9]; [17],0
same,"Plant response rating, Ragweed",[9]; [18],0
same,Ragweed plant response rating,"[9]; Preemergence, scale 0 to 100",0
same,"Plant response rating, Nightshade, E. B.",[10]; [19],0
same,"Plant response rating, Nightshade, E. B.",[10]; [20],0
same,"Plant response rating, Nightshade, E. B.","[10]; 62 g ai/ha, scale 0 to 100",0
same,"Nightshade, E. B. plant response rating","[10]; 8 g ai/ha, scale 0 to 100",0
same,"Nutsedge, Yellow plant response rating","[11]; postemergence, 0-100 scale",0
same,"Plant response rating, Nutsedge, Yellow",[11]; [13],0
same,"Plant response rating, Nutsedge, Yellow",[11]; [14],0
same,"Plant response rating, Nutsedge, Yellow",[11]; [15],0
same,"Plant response rating, Nutsedge, Yellow",[11]; [16],0
same,"Plant response rating, Nutsedge, Yellow",[11]; [17],0
same,"Plant response rating, Nutsedge, Yellow",[11]; [18],0
same,"Nutsedge, Yellow plant response rating","[11]; Preemergence, scale 0 to 100",0
same,"Oat, Wild plant response rating","wild oat (Avena fatua); postemergence, 0-100 scale",80
same,"Plant response rating, Oat, Wild",wild oat (Avena fatua); [13],90
same,"Plant response rating, Oat, Wild",wild oat (Avena fatua); [14],95
same,"Plant response rating, Oat, Wild",wild oat (Avena fatua); [15],100
same,"Plant response rating, Oat, Wild",wild oat (Avena fatua); [16],60
same,"Plant response rating, Oat, Wild",wild oat (Avena fatua); [17],85
same,"Plant response rating, Oat, Wild",wild oat (Avena fatua); [18],90
same,"Oat, Wild plant response rating","wild oat (Avena fatua); Preemergence, scale 0 to 100",0
same,Surinam Grass plant response rating,"[12]; postemergence, 0-100 scale",90
same,"Plant response rating, Surinam Grass",[12]; [13],90
same,"Plant response rating, Surinam Grass",[12]; [15],100
same,"Plant response rating, Surinam Grass",[12]; [16],90
same,"Plant response rating, Surinam Grass",[12]; [17],100
same,"Plant response rating, Surinam Grass",[12]; [18],100
same,Surinam Grass plant response rating,"[12]; Preemergence, scale 0 to 100",90
